These results are taken from publication PMC5943930, “Identification of Inhibitors Targeting Ferredoxin-NADP^+ Reductase from the Xanthomonas citri subsp. citri Phytopathogenic Bacteria” (Molecules : A Journal of Synthetic Chemistry and Natural …, 2017).

Where two headings read alike, the source gives them in different places. Bounds are passed on as bounds.

For one experiment, the target named is T1, AnFNR (Nostoc sp., UniProt P21890).
T1 construct: made in house; host or cells: Escherichia coli
T1 sequence (P21890 138-440 limits assumed): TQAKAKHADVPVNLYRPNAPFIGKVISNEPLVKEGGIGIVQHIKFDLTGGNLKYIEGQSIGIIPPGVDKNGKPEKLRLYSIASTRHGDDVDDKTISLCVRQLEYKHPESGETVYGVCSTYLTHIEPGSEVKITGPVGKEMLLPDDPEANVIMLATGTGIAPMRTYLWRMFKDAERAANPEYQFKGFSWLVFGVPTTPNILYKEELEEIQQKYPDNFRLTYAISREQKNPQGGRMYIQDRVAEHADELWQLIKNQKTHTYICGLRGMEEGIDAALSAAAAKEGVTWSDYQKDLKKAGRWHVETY
The experiment in a line: NADPH-dependent DCPIP diaphorase activity of AnFNR, dose-response of inhibitors. Type of experiment: biochemical, Anabaena PCC 7119. To be noted: 95 µM DCPIP, 50 μM NADPH; for IC50 / ICmax (concentration causing maximal inhibition): 25 °C, 2% DMSO, pH 8.0, 4 nM AnFNR; for IC50: 50 mM Tris/HCl, compound 0–800 μM; for % Inhibition at ICmax: 4 nM AnFNR. The method, then: We finally assessed the selectivity of our XccFPR inhibitors by testing the diaphorase activity of the plastidic Anabaena PCC 7119 FNR (AnFNR) at increasing concentrations of D2, D5 and D8 (Table 3).
(§1) When assayed in regular cuvettes, the DCPIP diaphorase activity of XccFPR was determined at 25 °C using a Cary 100 (Agilent Technologies Inc., Santa Clara, CA, USA) spectrophotometer as previously established. […] Positive controls (without any hit compound) were included in every reaction set. […] The DMSO concentration was kept at 2% in all samples. All kinetic experiments were performed in triplicate. The effect of the inhibitors on Km and kcat was determined by fitting the datasets to the Michaelis-Menten model. Additionally, data were globally fit to either Lineweaver-Burk equations for uncompetitive or non-competitive inhibition, yielding Ki for each compound (Equations (1) and (2), respectively).

In experiment [1] the target is T2, XccFPR (Xanthomonas citri pv. citri, UniProt A0AAI7ZED9).
T2 sequence (A0AAI7ZED9 1-259): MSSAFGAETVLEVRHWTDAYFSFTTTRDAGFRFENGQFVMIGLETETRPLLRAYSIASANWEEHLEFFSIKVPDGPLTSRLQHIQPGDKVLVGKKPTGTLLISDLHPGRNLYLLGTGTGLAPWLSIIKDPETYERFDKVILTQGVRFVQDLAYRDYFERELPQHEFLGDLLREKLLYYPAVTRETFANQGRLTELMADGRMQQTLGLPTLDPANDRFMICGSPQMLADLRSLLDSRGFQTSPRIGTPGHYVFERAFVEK
The experiment in a line: NADPH-dependent DCPIP diaphorase activity of XccFPR, dose-response of inhibitors. It counts as biochemical, Xanthomonas citri subsp. citri. Conditions: for inhibitory effect on XccFPR (in words): C12 derived compounds D1–D8. The method, then:
as §1

For experiment [2], the target named is T2, XccFPR. The experiment in a line: Inhibition constants and mechanisms, XccFPR diaphorase activity as a function of NADPH at increasing inhibitor concentrations. It counts as biochemical, Xanthomonas citri subsp. citri. Conditions: 25 °C, 50 mM Tris/HCl, 2% DMSO, pH 8.0; for Ki: global fit to Lineweaver–Burk inhibition model; for Inhibition Mechanism: versus NADPH. The method, then: as §1
(1) [e]/V0=(1+[I]/K^′i)/kcat+Km/kcat·1/[S]
(2) [e]/V0=(1+[I]/Ki)/kcat+(1+[I]/Ki)·Km/kcat·1/[S]

The target of experiment [3] is T2, XccFPR. Kind of experiment: Thermal stability of XccFPR, midpoint temperature for flavin release (TmFAD). It counts as binding, Xanthomonas citri subsp. citri. To be noted: 4 µM XccFPR. The text has this: The increase in fluorescence of the FAD cofactor when dissociated from the protein upon thermal unfolding was used to evaluate XccFPR stability under different conditions and to assess related midpoint temperature for flavin release (TmFAD). Fluorescence thermal denaturation curves were monitored on 96-well plates using a Stratagene Mx3005P qPCR detection system (Agilent Technologies Inc., Santa Clara, CA, USA). A FAM filter set (λexc = 492 nm; λem = 516 nm), which overlaps the fluorescence spectrum of the isoalloxazine ring was used to evaluate XccFPR midpoint temperature for flavin release (TmFAD) when free or in the presence of selected compounds. Measurements were performed using 4 µM protein in 50 mM Tris/HCl, pH 8.0 in a 100 µL final volume. Each measurement was done in triplicate.

In experiment [4] the target is T2, XccFPR. The experiment in a line: Steady-state kinetic parameters of XccFPR NADPH-dependent DCPIP diaphorase activity. It counts as biochemical, Xanthomonas citri subsp. citri. The method, then:
When assayed in regular cuvettes, the DCPIP diaphorase activity of XccFPR was determined at 25 °C using a Cary 100 (Agilent Technologies Inc., Santa Clara, CA, USA) spectrophotometer as previously established. […] Positive controls (without any hit compound) were included in every reaction set. […] All kinetic experiments were performed in triplicate. The effect of the inhibitors on Km and kcat was determined by fitting the datasets to the Michaelis-Menten model. Additionally, data were globally fit to either Lineweaver-Burk equations for uncompetitive or non-competitive inhibition, yielding Ki for each compound (Equations (1) and (2), respectively).

Experiment [5] concerns Xcc. Kind of experiment: Xcc growth/viability in liquid SB medium (colony-forming capacity). It counts as cell-based, Xanthomonas citri subsp. citri. To be noted: 1 mM compound, 28 °C, 0–6 h, control 2% DMSO. The method, then:
(§2) To evaluate the sensitivity of Xcc to C5, C12, C17 and C19, 100 µL of a bacterial suspension (containing ~10^9 cells mL^−1) were mixed with 4 mL of SB medium (5 g L^−1 sucrose, 5 g L^−1 yeast extract, 5 g L^−1 peptone, and 1 g L^−1 glutamic acid, pH 7.0) and 0.7% (w v^−1) molten agar and poured onto SB-1.5% (w v^−1) agar plates supplemented with 25 µg mL^−1 ampicillin. After hardening, 2 µL of a 10, 100 and 1000 µM solution of each compound were added onto the agar surface. The zones of growth inhibition were photographed after incubation for 24 h at 28 °C. To assess the compound inhibition effect on Xcc growth in liquid medium, overnight cultures were subcultured into fresh SB medium at 2% inoculums and grown for 6 h in the presence of 1 mM C12. Samples were removed at 0, 2, 4 and 6 h, serially diluted and plated on SB-1.5% (w v^−1) agar. Colonies were counted after 48 h of incubation at 28 °C.

Experiment [6] has as its system Xcc. Kind of experiment: Xcc growth inhibition on SB-agar plates. Conditions: 24 h at 28 °C. Type of experiment: cell-based, Xanthomonas citri subsp. citri. The method, then: as §2
Experiment [7] concerns the target T2, XccFPR. To be noted: ferricyanide as electron acceptor; cited from earlier work.
The mark [8] stands for this setting: 25 °C, 2% DMSO, pH 8.0, 20 nM XccFPR, 95 µM DCPIP, 50 μM NADPH.
The mark [9] stands for this setting: compound 1 mM, NADP+ 50 µM, DMSO 2 %.
Where [10] appears, read: compound 2 mM, NADP+ 50 µM, DMSO 2 %.

For `O=C(Nc1ccc(Cl)cc1)Nc1nnc(SCc2ccc(Cl)cc2)s1` [D5, 1-[5-(4-Chloro-benzylsulfanyl)-[1,3,4]thiadiazol-2-yl]-3-(4-chloro-phenyl)-urea], on AnFNR, it took 102 ± 1 µM to reach half-maximal inhibition (IC50), the “ICmax (concentration causing maximal inhibition)” value is above 300 µM and the “% Inhibition at ICmax” value is reported as around 47%. For the same compound, the IC50 against XccFPR [1] came out at 6.6 ± 1.1 µM. In addition, on XccFPR [1] (setting [8]), the “% Inhibition at ICmax” value is listed as 100 ± 2%. In addition, on XccFPR [2], the Ki is 4.3 ± 1.1 µM and the “Inhibition Mechanism” value is listed as “Non-competitive”. Further, at XccFPR [3] (compound 1 mM, DMSO 2 %), the TmFAD is 41.4 ± 0.1 °C and the ΔTmFAD came out at 0.4±0.2 °C. At XccFPR [3] (setting [9]), the TmFAD turned out to be 46.9 ± 0.1 °C and the ΔTmFAD was 5.9±0.2 °C.
For the compound `C[S+](C)[O-]` [DMSO], the ΔTmFAD on XccFPR [3] (DMSO 2 %) was -0.4±0.2 °C. Besides, the TmFAD on XccFPR [3] (DMSO 2 %, 50 mM Tris/HCl) came to 40.6 ± 0.1 °C; at XccFPR [3] (DMSO 5 %), 39.0 ± 0.1 °C; on XccFPR [3] (DMSO 10 %), 37.7 ± 0.1 °C. For the same compound, the “effect of solvent on XccFPR enzyme activity” value at XccFPR [4] (DMSO below 3%) is on record as “did not modify the kinetic parameters”; on XccFPR [4] (DMSO percentages larger than 3%), “decreased the maximal rate constant”.
As for `CSc1sc(NC(=O)Nc2ccc(F)c(Cl)c2)c(-c2ccc(Cl)cc2)c1C#N` [C12, 1-(3-chloro-4-fluorophenyl)-3-[3-(4-chlorophenyl)-4-cyano-5-(methylsulfanyl)thiophen-2-yl]urea], the concentration for half-maximal inhibition (IC50) at XccFPR [1] was found to be 7.7 ± 1 µM. At XccFPR [2], the affinity, expressed as Ki, was 4.2 ± 0.9 µM and the “Inhibition Mechanism” value is given as “Non-competitive”. The “growth inhibition in liquid medium (bacterial viability)” value with Xcc [5] is listed as “decrease of bacterial viability”. Besides, the “Xcc growth inhibition on solid SB medium” value in the experiment with Xcc [6] (2 µL of 10, 100 and 1000 µM solutions) was “inhibited Xcc growth at all concentrations assayed”. Moreover, the “lowest concentration assayed that inhibited Xcc growth” value with Xcc [6] (solid SB medium) is 10 µM.
`NC(=O)C1=CN([C@@H]2O[C@H](COP(=O)(O)OP(=O)(O)OC[C@H]3O[C@@H](n4cnc5c(N)ncnc54)[C@H](OP(=O)(O)O)[C@@H]3O)[C@@H](O)[C@H]2O)C=CC1` [NADPH, reference compound]: the kcat is 22.6 ± 2.3 s⁻¹ at XccFPR [4] (NADPH-dependent DCPIP diaphorase activity, 25 °C, pH 8.0) and 122 ± 18 s⁻¹ on XccFPR [7]. Besides, the Km on XccFPR [4] (read-out: Km^NADPH, DCPIP as electron acceptor, 25 °C, pH 8.0) was found to be 6.6 ± 1.1 µM.
On to `CSc1sc(NC(=O)Nc2cccc(C(F)(F)F)c2)cc1C#N` [D2], for which, at AnFNR, 27 ± 1 µM corresponded to half-maximal inhibition (IC50), the “ICmax (concentration causing maximal inhibition)” value turned out to be 100 ± 2 µM and the “% Inhibition at ICmax” value is listed as 99 ± 11%. The “ICmax (concentration causing maximal inhibition)” value against XccFPR [1] (25 °C, 50 mM Tris/HCl, 2% DMSO, pH 8.0, 20 nM XccFPR, 95 µM DCPIP, 50 μM NADPH) was determined as 175 ± 1 µM. In addition, the IC50 at XccFPR [1] (25 °C, 50 mM Tris/HCl, 2% DMSO, pH 8.0, 20 nM XccFPR, 95 µM DCPIP, 50 μM NADPH, compound 0–800 μM) turned out to be 26 ± 1 µM. Further, at XccFPR [1], the “inhibitory effect on XccFPR (in words)” value was “moderate IC50 but high concentrations were required to abolish XccFPR activity”. On XccFPR [1] (setting [8]), the “% Inhibition at ICmax” value turned out to be 100 ± 1%. Besides, on XccFPR [2], affinity was put at a Ki of 28 ± 2 µM and the “Inhibition Mechanism” value is on record as “uncompetitive inhibitor”. On XccFPR [3] (compound 2 mM, DMSO 2 %), the TmFAD was found to be 41.7 ± 0.1 °C and the ΔTmFAD amounted to 0.7±0.2 °C. For the same compound, at XccFPR [3] (setting [10]), the TmFAD amounted to 46.0 ± 0.1 °C and the ΔTmFAD was determined as 5.0±0.2 °C.
Consider `Cc1c(S(=O)(=O)c2ccc(Cl)cc2)csc1C(=O)Nc1ccc(F)cc1F` [D8, 4-(4-chlorobenzenesulfonyl)-N-(2,4-difluorophenyl)-3-methylthiophene-2-carboxamide], for which, at AnFNR, the half-maximal inhibitory concentration (IC50) worked out at 122 ± 1 µM, the “ICmax (concentration causing maximal inhibition)” value was above 350 µM and the “% Inhibition at ICmax” value was around 73%. In addition, on XccFPR [1], the IC50 was determined as 38 ± 1 µM and the “inhibitory effect on XccFPR (in words)” value is on record as “moderate IC50 but high concentrations were required to abolish XccFPR activity”. The “% Inhibition at ICmax” value at XccFPR [1] (setting [8]) worked out at 100 ± 1%. Besides, on XccFPR [2], the Ki worked out at 62 ± 19 µM and the “Inhibition Mechanism” value was “Non-competitive”.
With `NC(=O)c1ccc[n+]([C@@H]2O[C@H](COP(=O)([O-])OP(=O)(O)OC[C@H]3O[C@@H](n4cnc5c(N)ncnc54)[C@H](OP(=O)(O)O)[C@@H]3O)[C@@H](O)[C@H]2O)c1` [NADP^+], on XccFPR [3] (NADP+ 50 µM, DMSO 2 %), the TmFAD is 46.7 ± 0.1 °C and the ΔTmFAD was 5.7±0.2 °C. At XccFPR [3] (NADP+ 50 µM, no DMSO), the TmFAD was 47.2 ± 0.1 °C and the ΔTmFAD turned out to be 6.2±0.2 °C.
For `O=C1/C(=C/c2cccs2)CCC/C1=C\c1cccs1` [C22, (2E,6E)-2,6-bis[(thiophen-2-yl)methylidene]cyclohexan-1-one], on XccFPR [1], the midpoint of inhibition, the IC50, lay at 58 ± 2 µM. In addition, at XccFPR [1] (setting [8]), the “% Inhibition at ICmax” value was found to be 100 ± 4%.
The like results for `CCOC(=O)c1c(C)c(C#N)c(NC(=O)c2ccccc2)n1-c1ccccc1` [C14, ethyl 5-benzamido-4-cyano-3-methyl-1-phenyl-1H-pyrrole-2-carboxylate] were, in that order, 127 ± 1 µM and 85 ± 4%.
In the same order, the values of `Cc1cccc(C)c1NC(=O)Nc1cccs1` [D7, 1-(2,6-dimethylphenyl)-3-thiophen-2-ylurea] are 151 ± 1 µM and 84 ± 1%.
The like results for `N#CC(C#N)=C1SC=C(c2ccc(Cl)cc2)S1` [C23, 2-[4-(4-chlorophenyl)-2H-1,3-dithiol-2-ylidene]propanedinitrile] were, in that order, above 604 µM and 73 ± 3%.

The IC50 is the concentration at which inhibition is half-maximal. The term % Inhibition denotes the change of the read-out against control, counted positive when it falls. Higher therefore signals a strong effect. The term Ki denotes a dissociation constant, usually derived from enzyme kinetics or from competition with a known ligand. As usually defined, the kcat is the number of substrate molecules converted per active site and unit of time at saturation. By Km is commonly meant the concentration of substrate that gives half-maximal velocity.
